Data: ChEMBL document CHEMBL4257535, “Design, synthesis and biological evaluation of AKT inhibitors bearing a piperidin-4-yl appendant” (Medchemcomm, 2018)
The source made the active and inactive calls. The rule behind the calls is not given here.

Assays:
PC-3 [1] = test: Induction of apoptosis in human PC3 cells assessed as late apoptotic cells at 10 uM after 48 hrs by Annexin V-FITC/propidium iodide staining based flow cytometry (reference value: 0.27%); format: functional
PC-3 [2] = test: Induction of apoptosis in human PC3 cells assessed as necrotic cells at 5 uM after 48 hrs by Annexin V-FITC/propidium iodide staining based flow cytometry (reference value: 1.48%); format: functional
Homo sapiens [3] = organism: Homo sapiens; test: Inhibition of PKA (unknown origin) at 1 uM after 40 mins by scintillation counting method relative to control
[4] = biological target: T1, Serine/threonine-protein kinase Chk1 (Homo sapiens) (UniProt O14757); test: Inhibition of CHK1 (unknown origin) at 1 uM after 40 mins by scintillation counting method relative to control
T1 sequence (whole entry): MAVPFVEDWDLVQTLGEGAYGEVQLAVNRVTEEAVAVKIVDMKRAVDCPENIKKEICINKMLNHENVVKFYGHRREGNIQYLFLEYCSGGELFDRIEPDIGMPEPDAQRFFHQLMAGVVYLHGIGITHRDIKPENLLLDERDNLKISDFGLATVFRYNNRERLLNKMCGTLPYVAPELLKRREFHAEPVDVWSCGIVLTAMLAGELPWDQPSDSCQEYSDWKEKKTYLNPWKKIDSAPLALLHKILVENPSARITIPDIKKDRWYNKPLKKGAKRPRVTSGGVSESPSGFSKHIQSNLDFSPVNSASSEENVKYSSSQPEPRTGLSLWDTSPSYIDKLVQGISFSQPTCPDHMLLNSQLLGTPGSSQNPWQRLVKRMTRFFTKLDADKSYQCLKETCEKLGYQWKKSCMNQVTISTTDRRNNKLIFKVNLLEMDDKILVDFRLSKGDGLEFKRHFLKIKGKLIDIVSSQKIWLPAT

[5] = biological target: T2, Aurora kinase A (Homo sapiens) (UniProt O14965); test: Inhibition of Aurora A (unknown origin) at 1 uM after 40 mins by scintillation counting method relative to control
T2 sequence (whole entry): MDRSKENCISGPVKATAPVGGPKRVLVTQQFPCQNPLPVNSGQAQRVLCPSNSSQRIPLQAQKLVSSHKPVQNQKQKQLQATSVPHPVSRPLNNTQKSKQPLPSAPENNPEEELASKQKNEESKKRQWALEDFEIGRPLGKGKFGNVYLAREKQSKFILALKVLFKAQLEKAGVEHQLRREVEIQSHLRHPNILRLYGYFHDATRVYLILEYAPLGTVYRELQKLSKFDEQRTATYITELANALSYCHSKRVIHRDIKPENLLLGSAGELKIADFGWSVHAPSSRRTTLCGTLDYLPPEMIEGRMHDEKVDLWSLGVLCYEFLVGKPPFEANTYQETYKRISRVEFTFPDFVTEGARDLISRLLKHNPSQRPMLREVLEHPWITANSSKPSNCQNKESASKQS

[6] = biological target: Glycogen synthase kinase-3 beta (Homo sapiens) (UniProt P49841); test: Inhibition of GSK3beta (unknown origin) at 1 uM after 40 mins by scintillation counting method relative to control
[7] = biological target: Tyrosine-protein kinase ABL1 (Homo sapiens) (UniProt P00519); test: Inhibition of ABL (unknown origin) at 1 uM after 40 mins by scintillation counting method relative to control
[8] = biological target: Serine/threonine-protein kinase B-raf (Homo sapiens) (UniProt P15056); test: Inhibition of BRAF (unknown origin) at 1 uM after 40 mins by scintillation counting method relative to control
[9] = biological target: T3, 3-phosphoinositide-dependent protein kinase 1 (Homo sapiens) (UniProt O15530); test: Inhibition of PDK1 (unknown origin) at 1 uM after 40 mins by scintillation counting method relative to control
T3 sequence (whole entry): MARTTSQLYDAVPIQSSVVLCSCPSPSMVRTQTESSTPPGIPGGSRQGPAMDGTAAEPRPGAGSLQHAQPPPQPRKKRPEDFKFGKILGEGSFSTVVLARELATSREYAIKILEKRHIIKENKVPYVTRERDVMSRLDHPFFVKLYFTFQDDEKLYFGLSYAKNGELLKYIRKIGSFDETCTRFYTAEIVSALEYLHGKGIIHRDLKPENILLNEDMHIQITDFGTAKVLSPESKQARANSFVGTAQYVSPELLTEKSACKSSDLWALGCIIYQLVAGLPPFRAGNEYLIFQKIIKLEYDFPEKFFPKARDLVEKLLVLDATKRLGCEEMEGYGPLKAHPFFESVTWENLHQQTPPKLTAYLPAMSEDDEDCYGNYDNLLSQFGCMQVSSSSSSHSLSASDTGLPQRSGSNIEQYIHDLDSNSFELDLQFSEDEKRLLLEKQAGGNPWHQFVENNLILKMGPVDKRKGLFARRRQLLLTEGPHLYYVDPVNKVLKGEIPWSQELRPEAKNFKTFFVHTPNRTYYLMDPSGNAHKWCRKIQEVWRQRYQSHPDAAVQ

in vitro [10] = test: in vitro; parameters: dose or concentration left out as unconfirmed; settings: human, liver microsomes
Description: Half life in human liver microsomes at 10 mM preincubated for 10 mins followed by NADPH addition by LC-MS analysis

[11] = biological target: T4, RAC-alpha serine/threonine-protein kinase (Homo sapiens, UniProt P31749); test: Inhibition of AKT1 (unknown origin) at 0.1 uM using biotin-labelled STK as substrate measured after 45 mins by HTRF method relative to control
[12] = biological target: Protein kinase C alpha type (Homo sapiens) (UniProt P17252); test: Inhibition of PKCalpha (unknown origin) at 1 uM after 40 mins by scintillation counting method relative to control
PC-3 [13] = test: Induction of apoptosis in human PC3 cells assessed as early apoptotic cells at 10 uM after 48 hrs by Annexin V-FITC/propidium iodide staining based flow cytometry (reference value: 1.05%); format: functional
PC-3 [14] = test: Induction of apoptosis in human PC3 cells assessed as live cells at 1 uM after 48 hrs by Annexin V-FITC/propidium iodide staining based flow cytometry (reference value: 97.19%); format: functional
in vitro [15] = test: in vitro; parameters: dose or concentration left out as unconfirmed; settings: human, liver microsomes; remark: listed apart in the source
Description: Intrinsic clearance in human liver microsomes at 10 mM preincubated for 10 mins followed by NADPH addition and measured after 5 to 60 mins by LC-MS analysis

[16] = biological target: Tyrosine-protein kinase JAK1 (Homo sapiens) (UniProt P23458); test: Inhibition of JAK1 (unknown origin) at 1 uM after 40 mins by scintillation counting method relative to control
[17] = biological target: T4, RAC-alpha serine/threonine-protein kinase; test: Inhibition of AKT phosphorylation in human PC3 cells at 1 to 10 uM after 4 hrs by Western blot analysis; format: cell-based
[18] = biological target: MAP kinase-interacting serine/threonine-protein kinase 1 (Homo sapiens) (UniProt Q9BUB5); test: Inhibition of MNK1 (unknown origin) at 1 uM after 40 mins by scintillation counting method relative to control
in vitro [19] = test: in vitro; parameters: dose or concentration left out as unconfirmed; settings: human, liver microsomes; remark: listed apart in the source
Description: Stability in human liver microsomes assessed as parent compound remaining at 10 mM preincubated for 10 mins followed by NADPH addition and measured after 60 mins by LC-MS analysis

PC-3 [20] = test: Induction of apoptosis in human PC3 cells assessed as early apoptotic cells at 5 uM after 48 hrs by Annexin V-FITC/propidium iodide staining based flow cytometry (reference value: 1.05%); format: functional
Homo sapiens [21] = organism: Homo sapiens; test: Selectivity ratio of compound effect for inhibition of AKT3 (unknown origin) to compound effect for inhibition of AKT2 (unknown origin)

T4 sequence (P31749 whole entry): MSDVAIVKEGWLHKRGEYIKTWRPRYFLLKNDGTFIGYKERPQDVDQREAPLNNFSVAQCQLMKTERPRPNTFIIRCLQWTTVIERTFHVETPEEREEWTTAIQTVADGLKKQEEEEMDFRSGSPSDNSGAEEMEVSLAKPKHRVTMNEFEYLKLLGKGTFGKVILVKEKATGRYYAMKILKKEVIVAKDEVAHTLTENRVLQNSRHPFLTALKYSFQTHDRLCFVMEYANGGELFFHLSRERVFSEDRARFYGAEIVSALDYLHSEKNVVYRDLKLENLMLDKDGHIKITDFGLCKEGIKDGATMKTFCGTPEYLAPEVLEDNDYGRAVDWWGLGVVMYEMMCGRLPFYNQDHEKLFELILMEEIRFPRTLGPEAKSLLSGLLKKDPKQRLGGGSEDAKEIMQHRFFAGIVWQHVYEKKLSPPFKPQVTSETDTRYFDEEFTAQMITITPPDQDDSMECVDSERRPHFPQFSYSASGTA
Tyrosine-protein kinase ABL1 (Homo sapiens), sequence (P00519 whole entry): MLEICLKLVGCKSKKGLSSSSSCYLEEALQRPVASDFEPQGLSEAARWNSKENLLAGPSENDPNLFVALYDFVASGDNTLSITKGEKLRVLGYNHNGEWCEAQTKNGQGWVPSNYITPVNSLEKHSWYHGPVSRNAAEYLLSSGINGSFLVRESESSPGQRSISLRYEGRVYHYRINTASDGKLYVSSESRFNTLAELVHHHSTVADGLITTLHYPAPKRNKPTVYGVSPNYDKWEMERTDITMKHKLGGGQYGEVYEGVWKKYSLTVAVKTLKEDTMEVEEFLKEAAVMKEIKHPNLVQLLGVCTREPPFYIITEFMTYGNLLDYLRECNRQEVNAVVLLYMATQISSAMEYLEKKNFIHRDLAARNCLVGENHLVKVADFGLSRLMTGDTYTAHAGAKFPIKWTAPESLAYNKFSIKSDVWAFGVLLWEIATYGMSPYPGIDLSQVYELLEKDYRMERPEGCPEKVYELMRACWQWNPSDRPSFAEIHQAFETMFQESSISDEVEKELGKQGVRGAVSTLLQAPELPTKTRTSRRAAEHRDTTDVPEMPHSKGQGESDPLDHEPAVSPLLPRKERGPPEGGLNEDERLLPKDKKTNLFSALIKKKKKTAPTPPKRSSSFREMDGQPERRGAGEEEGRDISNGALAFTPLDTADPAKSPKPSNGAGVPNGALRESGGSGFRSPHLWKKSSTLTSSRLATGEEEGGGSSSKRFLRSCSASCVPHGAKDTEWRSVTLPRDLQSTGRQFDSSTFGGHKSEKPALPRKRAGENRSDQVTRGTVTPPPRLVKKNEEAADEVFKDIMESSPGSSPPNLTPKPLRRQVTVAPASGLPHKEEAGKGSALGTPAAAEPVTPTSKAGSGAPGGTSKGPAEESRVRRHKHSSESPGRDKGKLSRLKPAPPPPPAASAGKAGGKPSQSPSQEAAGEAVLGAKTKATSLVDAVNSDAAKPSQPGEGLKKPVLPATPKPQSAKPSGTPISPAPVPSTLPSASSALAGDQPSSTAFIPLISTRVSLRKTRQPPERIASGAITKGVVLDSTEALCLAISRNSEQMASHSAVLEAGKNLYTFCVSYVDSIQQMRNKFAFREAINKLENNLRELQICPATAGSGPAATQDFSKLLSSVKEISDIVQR
Glycogen synthase kinase-3 beta (Homo sapiens), sequence (P49841 whole entry, looked up): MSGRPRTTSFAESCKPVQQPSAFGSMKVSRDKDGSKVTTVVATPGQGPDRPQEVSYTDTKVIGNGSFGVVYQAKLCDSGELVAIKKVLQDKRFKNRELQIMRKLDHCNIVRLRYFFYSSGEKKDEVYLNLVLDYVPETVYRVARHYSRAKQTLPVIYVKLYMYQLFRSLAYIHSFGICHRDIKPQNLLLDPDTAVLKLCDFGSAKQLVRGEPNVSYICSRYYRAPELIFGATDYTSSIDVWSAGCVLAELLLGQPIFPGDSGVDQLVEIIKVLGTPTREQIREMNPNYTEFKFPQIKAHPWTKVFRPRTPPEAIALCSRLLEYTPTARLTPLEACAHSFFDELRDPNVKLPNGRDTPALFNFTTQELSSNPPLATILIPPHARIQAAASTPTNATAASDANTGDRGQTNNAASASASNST
Serine/threonine-protein kinase B-raf (Homo sapiens), sequence (P15056 whole entry): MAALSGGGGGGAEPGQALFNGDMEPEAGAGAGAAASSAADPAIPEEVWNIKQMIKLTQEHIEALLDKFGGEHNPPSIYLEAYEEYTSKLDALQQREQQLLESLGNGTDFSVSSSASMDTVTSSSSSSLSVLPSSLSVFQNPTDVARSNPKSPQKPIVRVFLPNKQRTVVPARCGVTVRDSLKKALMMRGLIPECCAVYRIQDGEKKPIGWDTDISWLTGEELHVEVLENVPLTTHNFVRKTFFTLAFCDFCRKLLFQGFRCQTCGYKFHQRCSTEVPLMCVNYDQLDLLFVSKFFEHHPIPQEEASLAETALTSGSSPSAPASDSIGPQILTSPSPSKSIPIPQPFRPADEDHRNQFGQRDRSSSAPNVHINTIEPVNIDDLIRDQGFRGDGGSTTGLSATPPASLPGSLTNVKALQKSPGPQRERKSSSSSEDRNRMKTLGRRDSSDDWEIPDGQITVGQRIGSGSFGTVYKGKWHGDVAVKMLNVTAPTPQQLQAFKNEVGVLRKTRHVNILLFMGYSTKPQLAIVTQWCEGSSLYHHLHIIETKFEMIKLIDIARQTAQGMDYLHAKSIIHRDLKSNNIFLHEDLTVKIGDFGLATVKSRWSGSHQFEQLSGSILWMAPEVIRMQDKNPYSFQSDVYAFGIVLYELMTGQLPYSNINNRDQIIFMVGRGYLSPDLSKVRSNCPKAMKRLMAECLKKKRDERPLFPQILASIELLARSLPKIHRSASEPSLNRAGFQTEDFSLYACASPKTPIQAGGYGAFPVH
Tyrosine-protein kinase JAK1 (Homo sapiens), sequence (P23458 whole entry): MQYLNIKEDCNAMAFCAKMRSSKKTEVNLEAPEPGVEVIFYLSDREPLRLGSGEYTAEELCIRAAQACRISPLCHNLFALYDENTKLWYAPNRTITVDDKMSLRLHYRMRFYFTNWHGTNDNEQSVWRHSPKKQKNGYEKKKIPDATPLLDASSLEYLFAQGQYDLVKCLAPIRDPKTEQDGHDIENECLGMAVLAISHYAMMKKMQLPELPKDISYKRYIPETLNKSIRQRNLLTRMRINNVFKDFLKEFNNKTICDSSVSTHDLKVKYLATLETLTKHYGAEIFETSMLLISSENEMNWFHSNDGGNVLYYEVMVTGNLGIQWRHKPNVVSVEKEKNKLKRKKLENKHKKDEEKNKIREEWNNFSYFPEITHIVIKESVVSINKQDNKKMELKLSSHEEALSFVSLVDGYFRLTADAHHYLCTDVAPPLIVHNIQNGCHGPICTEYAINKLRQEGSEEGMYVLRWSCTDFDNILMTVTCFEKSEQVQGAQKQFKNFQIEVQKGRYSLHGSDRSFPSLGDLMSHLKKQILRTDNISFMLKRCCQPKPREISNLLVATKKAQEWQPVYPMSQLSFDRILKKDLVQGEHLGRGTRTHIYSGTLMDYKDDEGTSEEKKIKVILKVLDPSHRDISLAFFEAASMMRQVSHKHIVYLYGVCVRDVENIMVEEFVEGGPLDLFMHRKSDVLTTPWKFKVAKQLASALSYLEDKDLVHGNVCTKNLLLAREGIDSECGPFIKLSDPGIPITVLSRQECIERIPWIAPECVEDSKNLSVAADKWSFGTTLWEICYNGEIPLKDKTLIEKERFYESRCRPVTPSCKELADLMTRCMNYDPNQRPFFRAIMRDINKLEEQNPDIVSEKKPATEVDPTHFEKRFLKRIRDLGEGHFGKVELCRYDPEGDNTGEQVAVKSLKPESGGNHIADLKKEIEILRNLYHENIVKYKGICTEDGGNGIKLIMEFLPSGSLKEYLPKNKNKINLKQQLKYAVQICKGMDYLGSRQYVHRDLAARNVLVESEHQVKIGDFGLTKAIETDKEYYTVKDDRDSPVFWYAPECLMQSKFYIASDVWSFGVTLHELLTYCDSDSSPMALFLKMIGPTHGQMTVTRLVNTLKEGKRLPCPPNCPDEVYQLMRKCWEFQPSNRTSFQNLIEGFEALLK

Question: Which Activity (PC-3 [1]) does the source give for O=C(N1CCN(c2ncnc3[nH]nc(Cl)c23)CC1)C1(c2ccc(Cl)c(Cl)c2)CCNCC1 here?
Answer: 16.6%

Question: And the Activity (PC-3 [2])?
Answer: 1.76%

Question: And the inhibition (Homo sapiens [3])?
Answer: 99%

Question: And the inhibition [4]?
Answer: inactive

Question: What about the inhibition [5] of the same compound?
Answer: 64%

Question: What about the inhibition [6] of the same compound?
Answer: inactive

Question: What about the inhibition [7] of the same compound?
Answer: inactive

Question: What about the inhibition [8] of the same compound?
Answer: inactive

Question: And the inhibition [9]?
Answer: inactive

Question: And the half-life (in vitro [10])?
Answer: > 2.42 h

Question: What about the inhibition [11] of the same compound?
Answer: 83.7%

Question: And the inhibition [12]?
Answer: inactive

Question: And the Activity (PC-3 [13])?
Answer: 11.23%

Question: And the Activity (PC-3 [14])?
Answer: 90.48%

Question: And the CLint scaled (in vitro [15])?
Answer: < 8.6 mL/min/kg

Question: What about the microsomal CLint (in vitro [15]) of the same compound?
Answer: < 9.6 µL/min/mg

Question: What about the inhibition [16] of the same compound?
Answer: inactive

Question: And the inhibition [17]?
Answer: Active

Question: What about the inhibition [18] of the same compound?
Answer: 47%

Question: And the remaining at 1 h (in vitro [19])?
Answer: 81.8%

Question: And the Activity (PC-3 [20])?
Answer: 3.93%

Question: And the Selectivity ratio (Homo sapiens [21])?
Answer: > 2
